Assay results: the supplement of paper PMC10307832

Key:
Experiment in all cases: relative viability (nuclei count vs DMSO), 5 days (fraction); higher = more cells survive
[1] = compound: COCC[n+]1c2c(n(Cc3cnccn3)c1C)C(=O)c1ccccc1C2=O [YM155] + C[C@@H](Oc1cc(-c2cnn(C3CCNCC3)c2)cnc1N)c1c(Cl)ccc(F)c1Cl [Crizotinib] (partner 1 µM)
Summary of the method: (§1)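 Dosing by pin tool came one day after lung cancer cell lines were seeded in 1536-well plates, using either one drug or a fixed anchor-drug dose plus five library-drug doses (not always all listed) in √10 steps. After 5 days, nuclei were counted on 4× images. Relative viability is treated-well nuclei count divided by vehicle-well nuclei count, and values are medians of duplicate plates.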

[2] = compound: COCC[n+]1c2c(n(Cc3cnccn3)c1C)C(=O)c1ccccc1C2=O [YM155] + COc1cccc2cc(-c3nc([C@H]4CC[C@H](C(=O)O)CC4)n4ncnc(N)c34)[nH]c12 [OSI-027] (partner 0.5 µM)
Summary of the method: as §1

[3] = compound: CC(C)(C)c1cc(NC(=O)Nc2ccc(-c3cn4c(n3)sc3cc(OCCN5CCOCC5)ccc34)cc2)no1 [Quizartinib] + O=C(c1cc(Cc2n[nH]c(=O)c3ccccc23)ccc1F)N1CCN(C(=O)C2CC2)CC1 [Olaparib] (partner 8 µM)
Summary of the method: as §1

[4] = compound: COCC[n+]1c2c(n(Cc3cnccn3)c1C)C(=O)c1ccccc1C2=O [YM155] + CC(=O)Nc1cccc(-n2c(=O)n(C3CC3)c(=O)c3c(Nc4ccc(I)cc4F)n(C)c(=O)c(C)c32)c1 [Trametinib] (partner 0.02 µM)
Summary of the method: as §1

Cell Line	relative viability ([1]; first compound 0.002 µM)	relative viability ([1]; first compound 0.006325 µM)	relative viability ([1]; first compound 0.02 µM)	relative viability ([1]; first compound 0.06325 µM)	relative viability ([2]; first compound 0.002 µM)	relative viability ([2]; first compound 0.006325 µM)	relative viability ([2]; first compound 0.02 µM)	relative viability ([2]; first compound 0.06325 µM)	relative viability ([3]; first compound 0.001 µM)	relative viability ([3]; first compound 0.003162 µM)	relative viability ([3]; first compound 0.01 µM)	relative viability ([3]; first compound 0.03162 µM)	relative viability ([3]; first compound 0.1 µM)	relative viability ([4]; first compound 0.002 µM)	relative viability ([4]; first compound 0.006325 µM)	relative viability ([4]; first compound 0.02 µM)	relative viability ([4]; first compound 0.06325 µM)
NCI-H1915	0.898	0.916	0.922	0.849	0.585	0.593	0.613	0.574	0.257	0.263	0.287	0.261	0.253	0.303	0.295	0.3	0.349
NCI-H1944	1.07	0.916	1.2	1.27	0.364	0.381	0.445	0.485	0.442	0.374	0.396	0.425	0.385	0.388	0.332	0.429	0.381
NCI-H1975	0.941	1.03	0.995	0.633	0.596	0.742	0.67	0.541	0.813	0.77	0.87	0.784	0.791	0.291	0.299	0.406	0.236
NCI-H1993	1.01	0.825	0.703	0.552	0.563	0.569	0.583	0.522	0.968	1.24	1.07	1.14	1.07	0.466	0.536	0.427	0.453
NCI-H2009	1.02	0.992	0.725	0.0795	0.567	0.604	0.647	0.382	0.658	0.64	0.628	0.54	0.597	0.273	0.295	0.354	0.358
NCI-H2023	0.719	0.734	0.717	0.361	0.442	0.455	0.403	0.195	0.418	0.422	0.513		0.417	0.538	0.617	0.451	0.241
NCI-H2085	0.698	0.767	0.77	0.477	0.742	0.783	0.809	0.421	0.707	0.748	0.789	0.7	0.72	0.573	0.659	0.679	0.348
NCI-H2087	0.914	0.71	0.883	0.648	0.492	0.567	0.715	0.618	0.654	0.578	0.619	0.587	0.583	0.143	0.179	0.271	0.225
NCI-H2126	0.988	0.967	1.07	1.04	0.645	0.714	0.761	0.727	0.914	0.915	0.896	0.984	0.882	0.558	0.582	0.541	0.556
NCI-H2170	1.13	1.18	1.24	1.18	0.698	0.785	0.695	0.74	0.567	0.681	0.656	0.584	0.54	0.878	0.936	0.903	0.966
NCI-H2228	0.527	0.445	0.368	0.563	0.612	0.689	0.605	0.713	0.696	0.729	1.02	0.707	0.807	0.485	0.444	0.565	0.589
NCI-H2347	0.683	0.644	0.561	0.633	0.371	0.504	0.421	0.421	0.458	0.518	0.701	0.57	0.608	0.279	0.258	0.306	0.283
NCI-H2405	0.8	0.82	0.831	0.644	0.625	0.613	0.616	0.465	0.851	0.807	0.92	0.832	0.902	0.661	0.595	0.596	0.384
NCI-H3122	0.269	0.239	0.257	0.272	0.995	1	1.05	0.715	0.573	0.637	0.653	0.69	0.676	0.191	0.202	0.242	0.203
PC-3 [JPC-3]	0.939	1.04	1.06	1.1	0.784	0.783	0.808	0.809	1.15	1.1	1.21	1.05	1.12	0.774	0.666	0.685	0.598
